For series [1], the target named is T1, human IPMK (Homo sapiens, UniProt Q8NFU5).
T1 sequence (Q8NFU5 with tags, fused parts or gaps): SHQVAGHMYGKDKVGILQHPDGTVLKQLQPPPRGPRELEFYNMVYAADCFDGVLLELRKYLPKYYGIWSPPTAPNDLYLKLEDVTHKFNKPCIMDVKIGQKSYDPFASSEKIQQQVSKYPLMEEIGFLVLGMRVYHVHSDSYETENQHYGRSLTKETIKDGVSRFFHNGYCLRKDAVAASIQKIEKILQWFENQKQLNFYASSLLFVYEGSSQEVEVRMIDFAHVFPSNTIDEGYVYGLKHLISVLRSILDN
The experiment in a line: IPMK kinase activity assay (33P-radiolabeled HPLC assay). To be noted: 33P-1,3,4,5-IP4 to InsP5, 1.0 mM ATP, 2 nM IPMK; mean with standard error, n = 3 (compound 1 n = 5). Type of series: biochemical. As for the experimental part:
(§1) For all enzyme assays, a serial dilution of the enzyme was performed in the kinase assay to determine the linear range of the enzyme concentration to be used.
(§2) We prepared ^33P-1,3,4,5-IP4 by incubating 1,4,5-IP3, ^33P-ATP, and IPMK, isolated the product with a 30 K d MW cutoff filter. Each reaction contained trace amounts (4,00,000 disintegrations per minute (dpm)) of ^33P-1,3,4,5-IP4 in a 100 μL incubation containing 20 mM HEPES (pH 7.2), 100 mM KCl, 3.5 mM MgCl2, 20 μM EDTA, 1.0 mM ATP, 1 μM 1,3,4,5-IP4, plus test compound in DMSO (or vehicle control) plus 2 nM IPMK. Assays were analyzed by HPLC, using a PartiSphere SAX 120, 5 μm, 4.6 × 125 mm HPLC column with a 250 μL injection volume. The elution gradient was generated by mixing Buffer A (1 mm Na2EDTA) with Buffer B (Buffer A plus 2.5 M NH4H2PO4, pH 3.9) and monitored by a β-RAM 6 in-line scintillation detector. A 1.0 mL/min elute was mixed with 0.5 or 2.5 mL/min monoflow scintillation liquid for ^33P or ^3H, respectively. Radiochromatography data were collected and analyzed using Laura software (v6.1.2.36).

Series [2] concerns human IPMK. The description is as above. Type of series: biochemical. To be noted: for IP6K1/IPMK: ratio of IP6K1 IC50 to IPMK IC50; for selectivity for IPMK over IP6K1: from IC50 values. As for the experimental part:
as §1, §2

Series [3] deals with T2, human IP6K1 (Homo sapiens, UniProt Q92551).
T2 construct: made in house
The experiment in a line: IP6K kinase activity assay (enzyme-coupled, malachite green Pi release). Type of series: biochemical. To be noted: 100 nM IP6K1, 25 μM InsP6, 500 μM ATP, 37 °C; mean with standard error, n = 3. As for the experimental part:
as §1
An enzyme-coupled assay was used to measure IP6K activity. Enzyme activity was assayed at 37 °C in 50 μL of reaction mixtures containing 100 nM IP6K1, 5.0 μM human Dipp1, 20 mM HEPES (pH 7.2), 100 mM KCl, 3.5 mM MgCl2, 20 μM EDTA, 25 μM InsP6, and 500 μM ATP for 60–120 min. Pi release was determined with a malachite green colorimetric assay. Reactions were quenched by the addition of 100 μL of phosphate detection reagent (36:1 v/v of 2.6% sodium molybdate in 2.5 M HCl: 0.126% malachite green chloride). Phosphate (Pi) release was quantified from the absorbance at 620 nm by using appropriate standards.

Details of series [4]: method as in recent work from another group (number not given). The conditions noted are these: mice, intraperitoneal injection; ref recent work from another group (number not given); cited from earlier work.
Series [5] deals with human U251-MG glioblastoma cells. More on the design: method as in other studies (number not given). To be noted: ref other studies (number not given); cited from earlier work.
Series [6] addresses IP3K-A (Homo sapiens, UniProt P23677). The experiment in a line: IP3K kinase activity assay ([3H]-InsP3, HPLC). Type of series: biochemical. The conditions noted are these: 1.0 μM 1,4,5-InsP3, 1.0 mM ATP, 0.25 nM IP3K-A; standard error, n = 3. As for the experimental part:
as §1
Each reaction contained 1.0 μM [^3H]-1,4,5-InsP3 (approximately 30,000 dpm; American Radiolabeled Chemicals, Inc., ART 0270) in a 100 μL incubation containing 20 mM HEPES (pH 7.2), 100 mM KCl, 3.5 mM MgCl2, 20 μM EDTA, 1.0 mM ATP, 1.0 μM 1,4,5-InsP3, plus test compound in DMSO (or vehicle control), and 0.25 nM IP3K-A. Reactions were quenched after 60 min by the addition of 2 volumes of 0.2 M NH4H2PO4, pH 3.9 and 20 mM EDTA and stored at 27 °C. Assays were analyzed by HPLC, using a PartiSphere SAX 120 Å, 5 μm, 4.6 × 125 mm HPLC column with a 250 μL injection volume. The elution gradient was generated by mixing Buffer A (1 mm Na2EDTA) with Buffer B (Buffer A plus 2.5 M NH4H2PO4, pH 3.9) and monitored by a β-RAM 6 in-line scintillation detector. A 1.0 mL/min elute was mixed with 0.5 or 2.5 mL/min monoflow scintillation liquid for ^33P or ^3H, respectively. Radiochromatography data were collected and analyzed using Laura software (v6.1.2.36).

The target in series [7] is T1, human IPMK. As to the kind of experiment: Isothermal titration calorimetry (ITC). Type of series: binding. The conditions noted are these: 15 μM IPMK in cell, 150 μM inhibitor in syringe, 25 °C, pH 7.2. As for the experimental part:
Isothermal calorimetry experiments were performed using a MicroCal PEAQ-ITC (Malvern Panalytical) with 15 μM recombinant human IPMK in the sample cell and 150 μM inhibitor 1 in the syringe, each of which was maintained at 25 °C in buffer containing 20 mM Tris-HCl, pH 7.2, 150 mM KCl, 0.05 mM EDTA, and 0.8 mM MgCl2. The sample cell (volume = 204 μL) and the syringe were cleaned before each run. Thermograms were constructed from 20 injections, each of which involved 2.0 μL of ligand delivered for 4.0 s, with an equilibration time of 150–300 s between each injection. The stirring speed was set to 750 rpm. Data were fitted to a single binding site model using the analysis software provided by the manufacturer, as supported by X-ray crystallography. At least three runs were performed.
(ITC needs no label: the signal is the heat of the interaction.)

This is an account of results in article PMC12670395, “Structural Rationalization of IPMK Inhibitor Potency” (Journal of Medicinal Chemistry, 2025).

Values joined by “and” are separate entries in the source; they are usually repeats but may differ in a detail not shown here. Equal values may be shown once.

T2 sequence (Q92551 whole entry): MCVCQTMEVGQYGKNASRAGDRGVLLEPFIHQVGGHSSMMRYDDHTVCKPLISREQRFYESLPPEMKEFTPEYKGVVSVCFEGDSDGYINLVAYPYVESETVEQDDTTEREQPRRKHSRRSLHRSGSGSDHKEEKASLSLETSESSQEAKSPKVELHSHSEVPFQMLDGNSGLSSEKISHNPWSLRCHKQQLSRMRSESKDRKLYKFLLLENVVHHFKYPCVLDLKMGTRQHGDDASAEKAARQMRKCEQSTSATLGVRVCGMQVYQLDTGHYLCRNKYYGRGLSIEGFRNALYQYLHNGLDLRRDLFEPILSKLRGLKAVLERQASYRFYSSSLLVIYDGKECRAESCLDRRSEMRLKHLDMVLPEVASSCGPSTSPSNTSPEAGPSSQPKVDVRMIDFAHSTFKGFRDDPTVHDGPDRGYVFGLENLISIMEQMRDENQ
IP3K-A, sequence (P23677 whole entry): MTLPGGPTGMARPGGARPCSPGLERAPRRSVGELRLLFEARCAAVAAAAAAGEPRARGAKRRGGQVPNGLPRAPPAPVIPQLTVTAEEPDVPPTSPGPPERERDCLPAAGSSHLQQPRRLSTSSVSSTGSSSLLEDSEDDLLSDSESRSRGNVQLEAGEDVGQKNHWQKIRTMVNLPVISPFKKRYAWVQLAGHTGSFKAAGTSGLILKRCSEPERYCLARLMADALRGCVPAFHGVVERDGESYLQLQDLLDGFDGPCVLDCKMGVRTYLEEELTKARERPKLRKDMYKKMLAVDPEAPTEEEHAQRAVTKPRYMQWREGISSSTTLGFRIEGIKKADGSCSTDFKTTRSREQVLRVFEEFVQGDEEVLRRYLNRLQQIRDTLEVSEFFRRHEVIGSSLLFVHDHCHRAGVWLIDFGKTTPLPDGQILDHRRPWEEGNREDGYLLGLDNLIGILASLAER

As usually defined, the IC50 is the concentration that gives 50% inhibition. Lower therefore signals greater potency. `O=C(Nc1cccc(-c2onc3ccc(-c4nnn[nH]4)cc23)c1)C1CCCC1` [Compound 15]: the IC50 in series [1] was 1.1 nM and 1.13 nM; in series [3], 40.1 ± 4 nM. In addition, in series [2], the IP6K1/IPMK is given as 36.

`c1cc(-c2onc3ccc(-c4nnn[nH]4)cc23)cc(C2CCN(C3CCC3)CC2)c1` [Compound 14]: the half-inhibitory concentration (IC50) in series [1] is 3 nM and 2.8 nM. In series [4], the “clearance, half-life, and volume of distribution” value is listed as “reasonable”. In series [5], the cellular growth result was “decrease” and the inositol phosphate metabolism entry is “decrease”.

Regarding `O=C(Nc1ccc(-c2onc3ccc(-c4nnn[nH]4)cc23)cc1)C1CC1` [Compound 10], the IC50 in series [1] is 3.5 ± 0.4 nM; in series [3] it was 35.8 nM and 36 nM. Moreover, the IP6K1/IPMK in series [2] is 10.

Take `O=C(Nc1cccc(-c2onc3ccc(-c4nnn[nH]4)cc23)c1)C1CC1` [Compound 11]: in series [1], the IC50 was 0.99 nM and 1 nM. In addition, in series [2], the “selectivity for IPMK over IP6K1” value stood at 50 fold and the IP6K1/IPMK was determined as 52. Also, the IC50 in series [3] is 52 nM and 51.8 nM.

Turning to `c1ccc(-c2onc3ccc(-c4nnn[nH]4)cc23)cc1` [Compound 6], the concentration for half-maximal inhibition (IC50) in series [1] came out at 3.8 ± 0.4 nM; in series [3] it was 38 ± 8 nM. In series [2], the “selectivity for IPMK over IP6K1” value was determined as 10 fold. Further, the IP6K1/IPMK in series [2] came to 10.

In the case of `FC(F)(F)c1ccc(-c2onc3ccc(-c4nnn[nH]4)cc23)cc1` [Compound 7], in series [1], the IC50 was 2.5 ± 0.3 nM. Moreover, in series [2], the IP6K1/IPMK was determined as 9.2.

Consider `Clc1cnc(Oc2cccc(-c3onc4ccc(-c5nnn[nH]5)cc34)c2)c(Cl)c1` [Compound 13], for which the IC50 worked out at 9.5 ± 2 nM in series [1] and 19 ± 4 nM in series [3]. In addition, in series [2], the IP6K1/IPMK is listed as 1.9.

Turning to `Cc1cc(C)cc(-c2onc3ccc(C(=O)O)cc23)c1` [Compound 3], in series [1], the IC50 amounted to 29 ± 5 nM. Besides, the IP6K1/IPMK in series [2] turned out to be 3.

As a reminder, the Kd is the concentration at which binding is half-saturated. Read a low Kd as a tighter complex. As for `Cc1cc(C)cc(-c2onc3ccc(/C=C/C(=O)O)cc23)c1` [Compound 1], the half-maximal inhibitory concentration (IC50) in series [1] was found to be 12.8 ± 2 nM; in series [3], 146 ± 23 nM; in series [6], 8000 nM. The “selectivity for IPMK over IP6K1” value in series [2] is reported as “approximately 10 fold”. Moreover, the IP6K1/IPMK in series [2] turned out to be 11.4. In series [7], this compound displayed a Kd of 11 nM.

As for `FC(F)(F)Oc1ccc(-c2onc3ccc(-c4nnn[nH]4)cc23)cc1` [Compound 8], the IC50 in series [1] was found to be 3.3 ± 0.4 nM; in series [3] it was 59 ± 14 nM. Moreover, in series [2], the IP6K1/IPMK amounted to 13.

In the case of `c1ccc(Oc2ccc(-c3onc4ccc(-c5nnn[nH]5)cc34)cc2)cc1` [Compound 9], the IC50 was 11 ± 2 nM in series [1]; 1270 nM and 1300 nM in series [3]. Besides, the IP6K1/IPMK in series [2] was found to be 115.

Take `Cc1cc(C)cc(-c2onc3ccc(-c4nnn[nH]4)cc23)c1` [Compound 4]: the 50% inhibitory concentration (IC50) in series [1] came to 1.9 ± 0.2 nM; in series [3] it was 24 ± 6 nM. Further, the IP6K1/IPMK in series [2] turned out to be 13.

In the case of `c1cc(OC2CCNCC2)cc(-c2onc3ccc(-c4nnn[nH]4)cc23)c1` [Compound 12], the half-inhibitory concentration (IC50) in series [1] was found to be 3.4 ± 0.5 nM. The IP6K1/IPMK in series [2] is given as 8.8.

Regarding `Cc1cc(C)cc(-c2onc3ccc([C@H]4C[C@@H]4C(=O)O)cc23)c1` [Compound 2], the IC50 in series [1] worked out at 8.1 ± 2 nM; in series [3], 45 ± 7 nM. Besides, the IP6K1/IPMK in series [2] turned out to be 5.6.
